In patent publication US20250304620A1, “ANTIMICROBIAL PEPTIDE AND APPLICATION THEREOF” (priority 2023, published 2025):
Values after ≈ are worked out from the molar mass of the structure shown. Where two headings read alike, the source gives them in different places. Marks after values point to notes of the source that are not given here. Non-standard residues stand in square brackets, D forms with d. Residues, ends and D or L forms follow the SMILES beside them. PEG2000 = polyethylene glycol 2000, conjugated to the N-terminus; 2Nal = N[C@@H](Cc1ccc2ccccc2c1)C(=O)O; d2Nal = N[C@H](Cc1ccc2ccccc2c1)C(=O)O

Key:
[1] = tested on: Staphylococcus aureus (NRS 384); test: microbe, parasite or virus in culture; assay type: cell-based
How it was run: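 CLSI broth microdilution with serial twofold dilutions gave MICs against S. aureus NRS 384, with 5 parallel replicates. Levofloxacin and the AMP Cbf-K16 served as positive controls.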

[2] = tested on: Bacillus subtilis ATCC 6633; assay type: cell-based
How it was run: (§1)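 Read-out is MIC, from a CLSI-conformant twofold microdilution series, done in quintuplicate in parallel.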

[3] = tested on: Candida albicans ATCC MYA-2876; assay type: cell-based
How it was run: as §1

[4] = tested on: Candida glabrata ATCC 15126; assay type: cell-based
How it was run: as §1

Candida krusei ATCC 6258 = assay type: cell-based
How it was run: as §1

[5] = tested on: Candida tropicalis ATCC 750; assay type: cell-based
How it was run: as §1

Candida utilis ATCC 9950 = assay type: cell-based
How it was run: as §1

[6] = tested on: Corynebacterium ATCC 7715; assay type: cell-based
How it was run: as §1

Enterococcus ATCC 29212 = assay type: cell-based
How it was run: as §1

[7] = tested on: Escherichia coli ATCC 25922; assay type: cell-based
How it was run: as §1

[8] = tested on: Klebsiella pneumoniae ATCC 700603; assay type: cell-based
How it was run: as §1

[9] = tested on: Pseudomonas aeruginosa ATCC 27853; assay type: cell-based
How it was run: as §1

[10] = tested on: Salmonella typhimurium ATCC 14028; assay type: cell-based
How it was run: as §1

[11] = tested on: Serratia marcescens ATCC 29021; assay type: cell-based
How it was run: as §1

[12] = tested on: Staphylococcus aureus ATCC 25923; assay type: cell-based
How it was run: as §1

[13] = tested on: Trichophyton ATCC MYA-4438; assay type: cell-based
How it was run: as §1

[14] = tested on: Staphylococcus aureus (NRS 384)
Experimental: Trypsin (250 U/mg, pH=8.0) and AMPs (LV-1 to LV-30) were mixed in a ratio of 1:10 (w/w) and added to a reaction buffer (0.2 M sodium phosphate, 1 mM CaCl2), pH 7.5), and then incubated at 37° C. for 3 h.

[15] = tested on: Pseudomonas aeruginosa ATCC 27853; test: Injectable formulations on mice infected with peritonitis; assay type: in vivo, ICR mice; settings: 1 mg/kg via tail vein, twice a day for 3 days, n = 10; for Average survival times (Days): observed for 14 d
How it was run: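 ICR mice of both sexes (10 per group) infected intraperitoneally with 0.2 mL P. aeruginosa ATCC 27853 at 1×10^9 CFU/mL. Injectable formulations dosed by body weight via tail vein twice daily for 3 days; deaths and survival time recorded over 14 d.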

[16] = tested on: Escherichia coli ATCC 25922; test: Oral formulations on mice with systemic bacterial infection; assay type: in vivo, ICR mice; settings: 1 mg/kg gavage, three times a day for 7 days, n = 10; for Average survival times (Days): observed for 14 d
How it was run: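 ICR mice of both sexes, 10 per group, infected i.p. with 0.2 mL E. coli ATCC 25922 at 1×10^7 CFU/mL. Compounds gavaged by body weight immediately after infection, three times daily for 7 days; deaths and survival time recorded over 14 d observation.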

| Molecule | MIC Bacillus subtilis ATCC 6633 [2] | MIC Candida albicans ATCC MYA-2876 [3] | MIC Candida glabrata ATCC 15126 [4] | MIC Candida krusei ATCC 6258 (Candida krusei ATCC 6258) | MIC Candida tropicalis ATCC 750 [5] | MIC Candida utilis ATCC 9950 (Candida utilis ATCC 9950) | MIC Corynebacterium ATCC 7715 [6] | MIC Enterococcus ATCC 29212 (Enterococcus ATCC 29212) | MIC Escherichia coli ATCC 25922 [7] | MIC Klebsiella pneumoniae ATCC 700603 [8] | MIC Pseudomonas aeruginosa ATCC 27853 [9] | MIC Salmonella typhimurium ATCC 14028 [10] | MIC Serratia marcescens ATCC 29021 [11] | MIC Staphylococcus aureus ATCC 25923 [12] | MIC Trichophyton ATCC MYA-4438 [13] | Number of mice that died on each day after infection: day 1 [15] | Number of mice that died on each day after infection: day 2 [15] | Number of mice that died on each day after infection: day 3 [15] | Number of mice that died on each day after infection: day 4 [15] | Number of mice that died on each day after infection: day 5 [15] | other results |
| --- | --- | --- | --- | --- | --- | --- | --- | --- | --- | --- | --- | --- | --- | --- | --- | --- | --- | --- | --- | --- | --- |
| CC(=O)N[C@H](CCCNC(=N)N)C(=O)N[C@H](CCCNC(=N)N)C(=O)N[C@H](CC(C)C)C(=O)N[C@H](CC(C)C)C(=O)N[C@H](Cc1ccc2ccccc2c1)C(=O)N[C@H](CCCNC(=N)N)C(=O)N[C@H](CC(C)C)C(=O)N[C@H](CCCCN)C(=O)N[C@H](Cc1ccc2ccccc2c1)C(=O)N[C@H](CCCNC(=N)N)C(=O)N[C@H](CCCCN)C(N)=O [LV-21] (Ac-[dR][dR][dL][dL][d2Nal][dR][dL][dK][d2Nal][dR][dK]-NH2) | 2 µg/mL (≈ 1.19 µM) | 8 µg/mL (≈ 4.78 µM) | 16 µg/mL (≈ 9.56 µM) | 4 µg/mL (≈ 2.39 µM) | 8 µg/mL (≈ 4.78 µM) | 8 µg/mL (≈ 4.78 µM) | 4 µg/mL (≈ 2.39 µM) | 4 µg/mL (≈ 2.39 µM) | 2 µg/mL (≈ 1.19 µM) | 4 µg/mL (≈ 2.39 µM) | 2 µg/mL (≈ 1.19 µM) | 2 µg/mL (≈ 1.19 µM) | 4 µg/mL (≈ 2.39 µM) | 1 µg/mL (≈ 0.597 µM) | 4 µg/mL (≈ 2.39 µM) | 2 Mouse | 0 Mouse | 2 Mouse | 0 Mouse | 0 Mouse | MIC against Staphylococcus aureus (NRS 384) ([1]; NRS 384): 1 µg/mL (≈ 0.597 µM); Trypsin MIC ([14]; NRS 384, 3 h): 1 µg/mL; Average survival times (Days) [15]: 9.2*** Days; Number of mice that died on each day after infection: day 4 [16]: 1 Mouse; Number of mice that died on each day after infection: day 5 [16]: 2 Mouse; Number of mice that died on each day after infection: day 6 [16]: 1 Mouse; Number of mice that died on each day after infection: day 7 [16]: 0 Mouse; Number of mice that died on each day after infection: day 8 [16]: 1 Mouse; Average survival times (Days) [16]: 9.8** Days |
| PEG2000-RKLLXRLKXRK-NH2 [LV-29] (PEG2000-RKLL[2Nal]RLK[2Nal]RK-NH2) [polyethylene glycol 2000 conjugated to N-terminal; X=3-(2-naphthyl)-alanine] | 4 µg/mL | 8 µg/mL | 8 µg/mL | 8 µg/mL | 4 µg/mL | 4 µg/mL | 16 µg/mL | 8 µg/mL | 1 µg/mL | 4 µg/mL | 4 µg/mL | 4 µg/mL | 4 µg/mL | 2 µg/mL | 16 µg/mL | 1 Mouse | 0 Mouse | 0 Mouse | 3 Mouse | 1 Mouse | MIC against Staphylococcus aureus (NRS 384) ([1]; Staphylococcus aureus (NRS 384)): 1 µg/mL; Trypsin MIC ([14]; MIC vs Staphylococcus aureus (NRS 384) after trypsin treatment 1:10 (w/w), 37° C., 3 h): 1 µg/mL; Average survival times (Days) [15]: 8.8** Days; Number of mice that died on each day after infection: day 4 [16]: 0 Mouse; Number of mice that died on each day after infection: day 5 [16]: 1 Mouse; Number of mice that died on each day after infection: day 6 [16]: 2 Mouse; Number of mice that died on each day after infection: day 7 [16]: 1 Mouse; Number of mice that died on each day after infection: day 8 [16]: 1 Mouse; Average survival times (Days) [16]: 10.2*** Days |
